The values that follow come from patent US20260001871A1, “TRIAZOLE DERIVATIVES AS MODULATORS OF MAS-RELATED G-PROTEIN RECEPTOR D” (ESCIENT PHARMACEUTICALS, INC., priority 2022, published 2026).

Each structure is given as a SMILES string.

The target in this test is human MRGPRD (Homo sapiens, UniProt Q8TDS7). Nature of the test: MRGPRD antagonist activity, IP-One HTRF assay in CHO cells stably expressing human MRGPRD (versus 100 μM β-Alanine agonist). The class given is cell-based. The gist of the method: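 IP-1 HTRF read-out, with IC50 from HTRF ratio curves and percent antagonism relative to maximal efficacy (mean, SEM). Antagonists and agonist were co-incubated 1 h at 37 °C plus 1 h at room temperature on overnight-plated MRGPRD-CHO cells in LiCl-containing Tris buffer, pH 8.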
Sequence of human MRGPRD (Q8TDS7 whole entry): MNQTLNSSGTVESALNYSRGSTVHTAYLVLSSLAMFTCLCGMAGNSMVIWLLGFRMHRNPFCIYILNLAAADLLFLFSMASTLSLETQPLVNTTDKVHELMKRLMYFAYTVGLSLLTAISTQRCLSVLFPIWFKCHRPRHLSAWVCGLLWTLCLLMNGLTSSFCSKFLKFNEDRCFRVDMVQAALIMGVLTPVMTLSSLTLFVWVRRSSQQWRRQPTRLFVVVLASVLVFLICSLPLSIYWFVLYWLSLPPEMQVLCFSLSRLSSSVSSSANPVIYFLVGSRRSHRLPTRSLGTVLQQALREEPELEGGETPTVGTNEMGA
(In TR-FRET formats the signal depends on donor and acceptor labels being close together.)

For orientation: IC50 means the concentration that gives 50% inhibition. The low end stands for greater potency in that assay, the high end for weaker potency in that assay. `C#Cc1cc(NC(=O)c2nnn(-c3ccc(-c4ccccc4)cc3)c2C2CC2)ccn1` [Compound 14-18] came in with an IC50 of 100 to 500 nM. Take `CS(=O)(=O)Nc1ccc(NC(=O)c2nnn(-c3ccc(-c4ccccc4)cc3)c2C2CC2)cc1` [Compound 14-19]: the IC50 fell in the range of 500 to 1000 nM. The figure for `Cc1ccc(CNC(=O)c2nnn(-c3ccc(-c4ccccc4)cc3)c2C2CC2)cn1` [Compound 14-20] is 500 to 1000 nM; for `Cc1csc(CNC(=O)c2nnn(-c3ccc(-c4ccccc4)cc3)c2C2CC2)n1` [Compound 14-21] it is 500 to 1000 nM; for `O=C(Nc1ccnc(C(F)F)c1)c1nnn(-c2ccc(-c3ccccc3)cc2)c1C1CC1` [Compound 14-22] it is 500 to 1000 nM. To `COc1cc(NC(=O)c2nnn(-c3ccc(-c4ccccc4)cc3)c2C2CC2)cc(C)n1` [Compound 14-23] belongs 500 to 1000 nM. The figure for `O=C(Nc1cccc(-n2cncn2)c1)c1nnn(-c2ccc(-c3ccccc3)cc2)c1C1CC1` [Compound 14-24] is 500 to 1000 nM. Take `Cc1n[nH]c2ncnc(NC(=O)c3nnn(-c4ccc(-c5ccccc5)cc4)c3C3CC3)c12` [Compound 14-25]: the IC50 fell in the range of 500 to 1000 nM. `N#Cc1cc(NC(=O)c2nnn(-c3ccc(-c4ccccc4)cc3)c2C2CC2)ccn1` [Compound 14-26] came in with an IC50 of 500 to 1000 nM. The figure for `CCn1cc(C(C)NC(=O)c2nnn(-c3ccc(-c4ccccc4)cc3)c2C2CC2)cn1` (centres unmarked) [Compound 14-27] is 500 to 1000 nM; for `C[C@H](NC(=O)c1nnn(-c2ccc(-c3ccccc3)cc2)c1C1CC1)c1ccc(Cl)cc1` [Compound 14-28] it is 1000 to 3000 nM; for `O=C(Nc1ccnc2[nH]ncc12)c1nnn(-c2ccc(-c3ccccc3)cc2)c1C1CC1` [Compound 14-29] it is 1000 to 3000 nM.

`O=C(NC1CCSCC1)c1nnn(-c2ccc(-c3ccccc3)cc2)c1C1CC1` [Compound 14-30] showed an IC50 of 1000 to 3000 nM.

`CCn1cc(CNC(=O)c2nnn(-c3ccc(-c4ccccc4)cc3)c2C2CC2)cn1` [Compound 14-31] gave an IC50 of 1000 to 3000 nM.

Regarding `CC(C)n1cc(CNC(=O)c2nnn(-c3ccc(-c4ccccc4)cc3)c2C2CC2)cn1` [Compound 14-32], the IC50 lay within 1000 to 3000 nM.

`CC(NC(=O)c1nnn(-c2ccc(-c3ccccc3)cc2)c1C1CC1)c1ccn(C)n1` (centres unmarked) [Compound 14-33] displayed an IC50 of 1000 to 3000 nM. Take `Cn1cc(CNC(=O)c2nnn(-c3ccc(-c4ccccc4)cc3)c2C2CC2)cn1` [Compound 14-34]: the IC50 was in the range of 1000 to 3000 nM. The figure for `O=C(NCc1cn[nH]c1)c1nnn(-c2ccc(-c3ccccc3)cc2)c1C1CC1` [Compound 14-36] is 1000 to 3000 nM. The figure for `CC[C@H](NC(=O)c1nnn(-c2ccc(-c3ccccc3)cc2)c1C1CC1)c1ccccc1` [Compound 14-37] is 1000 to 3000 nM; for `Cn1ncc2c1CCCC2NC(=O)c1nnn(-c2ccc(-c3ccccc3)cc2)c1C1CC1` (centres unmarked) [Compound 14-38] it is 1000 to 3000 nM. The figure for `Cc1c2c(NC(=O)c3nnn(-c4ccc(-c5ccccc5)cc4)c3C3CC3)nccc2nn1C` [Compound 14-39] is 1000 to 3000 nM. On to `CO[C@H]1CC[C@H](NC(=O)c2nnn(-c3ccc(-c4ccccc4)cc3)c2C2CC2)CC1` [Compound 14-40], for which the IC50 lay in the range of 1000 to 3000 nM. The figure for `O=C(NCc1c[nH]cn1)c1nnn(-c2ccc(-c3ccccc3)cc2)c1C1CC1` [Compound 14-41] is 1000 to 3000 nM; for `O=C(NCCc1c[nH]cn1)c1nnn(-c2ccc(-c3ccccc3)cc2)c1C1CC1` [Compound 14-42] it is 1000 to 3000 nM; for `CC(NC(=O)c1nnn(-c2ccc(-c3ccccc3)cc2)c1C1CC1)c1cnn(C(C)(C)C)c1` (centres unmarked) [Compound 14-43] it is 1000 to 3000 nM. To `CC1(C)COCCC1NC(=O)c1nnn(-c2ccc(-c3ccccc3)cc2)c1C1CC1` (centres unmarked) [Compound 14-44] belongs 1000 to 3000 nM; to `CCn1cc(NC(=O)c2nnn(-c3ccc(-c4ccccc4)cc3)c2C2CC2)cn1` [Compound 14-45], 1000 to 3000 nM; to `O=C(NC1(c2cccnc2)CC1)c1nnn(-c2ccc(-c3ccccc3)cc2)c1C1CC1` [Compound 14-46], 1000 to 3000 nM.

For the compound `CC(NC(=O)c1nnn(-c2ccc(-c3ccccc3)cc2)c1C1CC1)c1ccc(S(C)(=O)=O)cc1` (centres unmarked) [Compound 14-47], the IC50 is 1000 to 3000 nM.

Regarding `O=C(Nc1ccnc(N2CCOCC2)c1)c1nnn(-c2ccc(-c3ccccc3)cc2)c1C1CC1` [Compound 14-48], the IC50 lay in the range of 1000 to 3000 nM. The figure for `CC(NC(=O)c1nnn(-c2ccc(-c3ccccc3)cc2)c1C1CC1)c1cccnc1` (centres unmarked) [Compound 14-49] is 1000 to 3000 nM; for `COc1cc(NC(=O)c2nnn(-c3ccc(-c4ccccc4)cc3)c2C2CC2)ccn1` [Compound 14-50] it is 1000 to 3000 nM. The figure for `Cc1nn(C)c2ccnc(NC(=O)c3nnn(-c4ccc(-c5ccccc5)cc4)c3C3CC3)c12` [Compound 14-51] is 1000 to 3000 nM. The figure for `O=C(Nc1ccnc(C(F)(F)F)c1)c1nnn(-c2ccc(-c3ccccc3)cc2)c1C1CC1` [Compound 14-52] is 1000 to 3000 nM; for `O=C(Nc1ncnc2[nH]ncc12)c1nnn(-c2ccc(-c3ccccc3)cc2)c1C1CC1` [Compound 14-53] it is 1000 to 3000 nM; for `O=C(Nc1c(F)cccc1F)c1nnn(-c2ccc(-c3ccccc3)cc2)c1C1CC1` [Compound 14-54] it is 1000 to 3000 nM. In turn, `Cc1cc(CNC(=O)c2nnn(-c3ccc(-c4ccccc4)cc3)c2C2CC2)nn1C` [Compound 14-55] registered an IC50 of 1000 to 3000 nM. To `O=C(NC1CC(F)(F)C1)c1nnn(-c2ccc(-c3ccccc3)cc2)c1C1CC1` [Compound 14-56] belongs 1000 to 3000 nM; to `O=C(N[C@H]1CCc2ccccc21)c1nnn(-c2ccc(-c3ccccc3)cc2)c1C1CC1` [Compound 14-57], 1000 to 3000 nM.

The compound `Cc1cc(NC(=O)c2nnn(-c3ccc(-c4ccccc4)cc3)c2C2CC2)ccc1F` [Compound 14-58] registered a 50% inhibitory concentration (IC50) of 1000 to 3000 nM. To `COc1ccc2[nH]cc(CC(C)NC(=O)c3nnn(-c4ccc(-c5ccccc5)cc4)c3C3CC3)c2c1` (centres unmarked) [Compound 14-59] belongs 1000 to 3000 nM; to `O=C(Nc1cncc2[nH]ncc12)c1nnn(-c2ccc(-c3ccccc3)cc2)c1C1CC1` [Compound 14-60], 1000 to 3000 nM.

Take `Cc1n[nH]c2cccc(NC(=O)c3nnn(-c4ccc(-c5ccccc5)cc4)c3C3CC3)c12` [Compound 14-61]: the IC50 was 1000 to 3000 nM. To `COc1cccc(C)c1NC(=O)c1nnn(-c2ccc(-c3ccccc3)cc2)c1C1CC1` [Compound 14-62] belongs 1000 to 3000 nM. The figure for `Cn1ncc2c(NC(=O)c3nnn(-c4ccc(-c5ccccc5)cc4)c3C3CC3)cccc21` [Compound 14-63] is 1000 to 3000 nM; for `Cc1c(C(C)NC(=O)c2nnn(-c3ccc(-c4ccccc4)cc3)c2C2CC2)cnn1C` (centres unmarked) [Compound 14-64] it is 1000 to 3000 nM; for `O=C(Nc1cccc2nccn12)c1nnn(-c2ccc(-c3ccccc3)cc2)c1C1CC1` [Compound 14-65] it is 1000 to 3000 nM. For `Cc1cn2c(NC(=O)c3nnn(-c4ccc(-c5ccccc5)cc4)c3C3CC3)cccc2n1` [Compound 14-66], the IC50 is 1000 to 3000 nM. Consider `O=C(NCCc1cccs1)c1nnn(-c2ccc(-c3ccccc3)cc2)c1C1CC1` [Compound 14-67], for which the IC50 lay in the range of 1000 to 3000 nM. The figure for `O=C(N[C@H]1CCC[C@@H](O)C1)c1nnn(-c2ccc(-c3ccccc3)cc2)c1C1CC1` [Compound 14-68] is 1000 to 3000 nM; for `Cn1cc(C2(NC(=O)c3nnn(-c4ccc(-c5ccccc5)cc4)c3C3CC3)CC2)cn1` [Compound 14-69] it is 1000 to 3000 nM.

Regarding `Cn1ncc2c1CCC2NC(=O)c1nnn(-c2ccc(-c3ccccc3)cc2)c1C1CC1` (centres unmarked) [Compound 14-70], the IC50 was 1000 to 3000 nM. The figure for `Cc1c(NC(=O)c2nnn(-c3ccc(-c4ccccc4)cc3)c2C2CC2)nn(C)c1C` [Compound 14-71] is more than 3000 nM. To `Cn1cc(NC(=O)c2nnn(-c3ccc(-c4ccccc4)cc3)c2C2CC2)cn1` [Compound 14-72] belongs more than 3000 nM; to `CC(C)n1cc(NC(=O)c2nnn(-c3ccc(-c4ccccc4)cc3)c2C2CC2)cn1` [Compound 14-73], more than 3000 nM. Compound `CC1(NC(=O)c2nnn(-c3ccc(-c4ccccc4)cc3)c2C2CC2)CCOCC1` [Compound 14-74] returned an IC50 of more than 3000 nM.

`CC(NC(=O)c1nnn(-c2ccc(-c3ccccc3)cc2)c1C1CC1)c1cnn(C)c1` (centres unmarked) [Compound 14-75] gave an IC50 of more than 3000 nM. For the compound `CN(Cc1ccc(N2CCOCC2)cc1)C(=O)c1nnn(-c2ccc(-c3ccccc3)cc2)c1C1CC1` [Compound 14-76], the concentration for half-maximal inhibition (IC50) is more than 3000 nM. The figure for `CS(=O)(=O)Nc1cccc(NC(=O)c2nnn(-c3ccc(-c4ccccc4)cc3)c2C2CC2)c1` [Compound 14-77] is more than 3000 nM; for `CCn1cc(NC(=O)c2nnn(-c3ccc(-c4ccccc4)cc3)c2C2CC2)c(C#N)n1` [Compound 14-78] it is more than 3000 nM; for `Cn1ncc2c(NC(=O)c3nnn(-c4ccc(-c5ccccc5)cc4)c3C3CC3)ncnc21` [Compound 14-79] it is more than 3000 nM. To `O=C(Nc1cnn(C(F)(F)F)c1)c1nnn(-c2ccc(-c3ccccc3)cc2)c1C1CC1` [Compound 14-80] belongs more than 3000 nM; to `CC(C)C(NC(=O)c1nnn(-c2ccc(-c3ccccc3)cc2)c1C1CC1)c1cn[nH]c1` (centres unmarked) [Compound 14-81], more than 3000 nM. The figure for `O=C(N[C@H]1CCC[C@@H]1O)c1nnn(-c2ccc(-c3ccccc3)cc2)c1C1CC1` [Compound 14-82] is more than 3000 nM; for `COCC1(NC(=O)c2nnn(-c3ccc(-c4ccccc4)cc3)c2C2CC2)CCCC1` [Compound 14-83] it is more than 3000 nM; for `COc1cc(NC(=O)c2nnn(-c3ccc(-c4ccccc4)cc3)c2C2CC2)c2cn[nH]c2c1` [Compound 14-84] it is more than 3000 nM.

`Cn1cc(C(C)(C)NC(=O)c2nnn(-c3ccc(-c4ccccc4)cc3)c2C2CC2)cn1` [Compound 14-85] gave an IC50 of more than 3000 nM.

Take `C[C@H](NC(=O)c1nnn(-c2ccc(-c3ccccc3)cc2)c1C1CC1)c1ccccc1` [Compound 14-86]: the IC50 is more than 3000 nM.
